Read-outs that look alike come from different tables or passages of the source.
Experiments:
blackgrass = assay: Test B postemergence herbicide test; type: in vivo, Alopecurus myosuroides; settings: Alopecurus myosuroides, post-emergence, 336 h, postemergence, visual rating, scale 0 (no effect) to 100 (complete control), read-out: Blackgrass plant response rating
Procedure, shortened: (§1)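 Each value is a visual 0–100 response rating taken against controls 13 to 15 days after treatment in the greenhouse. Plants received formulated chemical postemergence at the 1- to 4-leaf stage or, in flooded paddy, at the 2-leaf stage.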

large crabgrass = assay: Test B pre-/postemergence herbicide test; type: in vivo, Digitaria sanguinalis; settings: Digitaria sanguinalis; for pest or weed control at 125 g/ha: 125 g ai/ha; for pest or weed control at 500 g/ha: 500 g ai/ha
Procedure, shortened: (§2)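 Plants compared with untreated controls 13–15 days post-treatment and given a visual 0–100 injury score. Applications: preemergence to seeds; postemergence at 1- to 4-leaf (2–18 cm); paddy species flooded, 2-leaf stage. Vehicle non-phytotoxic, surfactant included.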

barnyardgrass [1] = assay: Test B pre-/postemergence herbicide test; type: in vivo, Echinochloa crus-galli; settings: Echinochloa crus-galli; for pest or weed control at 125 g/ha: 125 g ai/ha; for pest or weed control at 500 g/ha: 500 g ai/ha
Procedure, shortened: (§3)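 Evaluation is visual, comparing treated with control plants on a scale where 0 means no effect and 100 means full control. Treatments were preemergence, or postemergence on seedlings 2–18 cm tall, and held 13–15 days in the greenhouse.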

giant foxtail = assay: Test B pre-/postemergence herbicide test; type: in vivo, Setaria faberi; settings: Setaria faberi, 336 h; for pest or weed control at 125 g/ha: 125 g ai/ha; for pest or weed control at 500 g/ha: 500 g ai/ha
Procedure, shortened: as §2

lambsquarters = assay: Test B pre-/postemergence herbicide test; type: in vivo, Chenopodium album; settings: Chenopodium album, 336 h; for pest or weed control at 125 g/ha: 125 g ai/ha; for pest or weed control at 500 g/ha: 500 g ai/ha
Procedure, shortened: as §2

[2] = test system: small flower umbrella sedge; assay: Test B flooded paddy test; type: in vivo, Cyperus difformis; settings: Cyperus difformis, 336 h, 1000 g ai/ha, visual rating, scale 0 to 100 (0 no effect, 100 complete control), 13 to 15 days, read-out: Sedge, Umbrella plant response rating
Procedure, shortened: as §1

cocklebur = assay: Test B pre-/postemergence herbicide test; type: in vivo, Xanthium strumarium; settings: Xanthium strumarium; for pest or weed control at 125 g/ha: 125 g ai/ha; for pest or weed control at 500 g/ha: 500 g ai/ha
Procedure, shortened: as §3

corn = assay: Test B pre-/postemergence herbicide test; type: in vivo, Zea mays; settings: Zea mays
Procedure, shortened: as §2

morningglory = assay: Test B pre-/postemergence herbicide test; type: in vivo, Ipomoea coccinea; settings: Ipomoea, 336 h; for pest or weed control at 125 g/ha: 125 g ai/ha; for pest or weed control at 500 g/ha: 500 g ai/ha
Procedure, shortened: as §3

pigweed = assay: Test B pre-/postemergence herbicide test; type: in vivo, Amaranthus retroflexus; settings: Amaranthus retroflexus, 336 h; for pest or weed control at 125 g/ha: 125 g ai/ha; for pest or weed control at 500 g/ha: 500 g ai/ha
Procedure, shortened: as §2

ducksalad = assay: Test B flooded paddy test; type: in vivo, Heteranthera limosa; settings: Heteranthera limosa, 336 h, 1000 g ai/ha, visual rating, scale 0 to 100 (0 no effect, 100 complete control), 13 to 15 days, read-out: Ducksalad plant response rating
Procedure, shortened: as §1

wild oat = assay: Test B postemergence herbicide test; type: in vivo, Avena fatua; settings: Avena fatua, post-emergence, 336 h, postemergence, visual rating, scale 0 (no effect) to 100 (complete control), read-out: Oat, Wild plant response rating
Procedure, shortened: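 Greenhouse test; postemergence application to plants at 1–4 leaves (2–18 cm); paddy species at 2 leaves; evaluated visually vs controls at 13–15 days; scale 0–100 (100 = complete control).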

barnyardgrass [3] = assay: Test B flooded paddy test; type: in vivo, Echinochloa crus-galli; settings: Echinochloa crus-galli, 336 h, 1000 g ai/ha, visual rating, scale 0 to 100 (0 no effect, 100 complete control), 13 to 15 days, read-out: Barnyardgrass plant response rating
Procedure, shortened: as §1

velvetleaf = assay: Test B pre-/postemergence herbicide test; type: in vivo, Abutilon theophrasti; settings: Abutilon theophrasti, 336 h; for pest or weed control at 125 g/ha: 125 g ai/ha; for pest or weed control at 500 g/ha: 500 g ai/ha
Procedure, shortened: as §2

rice = assay: Test B flooded paddy test; type: in vivo, Oryza sativa; settings: Oryza sativa, 336 h, 1000 g ai/ha, visual rating, scale 0 to 100 (0 no effect, 100 complete control), 13 to 15 days, read-out: Rice plant response rating
Procedure, shortened: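 Formulated test chemicals went onto postemergence plants measuring 2 to 18 cm, at one to four leaves. For the paddy assay, species had reached two leaves. Scoring took place 13–15 days later by eye, relative to untreated plants, using 0 for no effect up to 100 for full control.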

[4] = post-emergence, postemergence, visual rating, scale 0 (no effect) to 100 (complete control), read-out: Crabgrass, Large plant response rating
[5] = post-emergence, postemergence, visual rating, scale 0 (no effect) to 100 (complete control), read-out: Barnyardgrass plant response rating
[6] = post-emergence, postemergence, visual rating, scale 0 (no effect) to 100 (complete control), read-out: Foxtail, Giant plant response rating
[7] = post-emergence, postemergence, visual rating, scale 0 (no effect) to 100 (complete control), read-out: Lambsquarters plant response rating
[8] = post-emergence, postemergence, visual rating, scale 0 (no effect) to 100 (complete control), read-out: Cocklebur plant response rating
[9] = post-emergence, postemergence, visual rating, scale 0 (no effect) to 100 (complete control), read-out: Morningglory plant response rating
[10] = post-emergence, postemergence, visual rating, scale 0 (no effect) to 100 (complete control), read-out: Pigweed plant response rating
[11] = post-emergence, postemergence, visual rating, scale 0 (no effect) to 100 (complete control), read-out: Velvetleaf plant response rating

Q: Which pest or weed control at 125 g/ha (blackgrass; 125 g ai/ha) does the source give for `CCn1nc(C(C)(C)C)cc1C(=O)Nc1cccc(C(=O)OC)n1` [Compound 143, methyl 6-[[[3-(1,1-dimethylethyl)-1-ethyl-1H-pyrazol-5-yl]carbonyl]amino]-2-pyridinecarboxylate] here?
A: 0%

Q: What about the pest or weed control at 500 g/ha (blackgrass; 500 g ai/ha) of the same compound?
A: 0%

Q: What about the pest or weed control at 125 g/ha (large crabgrass; [4]) of the same compound?
A: 0%

Q: And the pest or weed control at 500 g/ha (large crabgrass; [4])?
A: 0%

Q: And the pest or weed control at 500 g/ha (large crabgrass; pre-emergence, visual rating 0-100, 0 no effect, 100 complete control, read-out: Plant response rating, Crabgrass, Large)?
A: 0%

Q: What about the pest or weed control at 125 g/ha (large crabgrass; pre-emergence, preemergence, 0 to 100 scale, 0 is no effect, 100 is complete control, read-out: Plant response rating, Crabgrass, Large) of the same compound?
A: 0%

Q: What about the pest or weed control at 125 g/ha (barnyardgrass [1]; [5]) of the same compound?
A: 0%

Q: What about the pest or weed control at 500 g/ha (barnyardgrass [1]; [5]) of the same compound?
A: 0%

Q: What about the pest or weed control at 500 g/ha (barnyardgrass [1]; pre-emergence, visual rating 0-100, 0 no effect, 100 complete control, read-out: Plant response rating, Barnyardgrass) of the same compound?
A: 0%

Q: And the pest or weed control at 125 g/ha (barnyardgrass [1]; pre-emergence, preemergence, 0 to 100 scale, 0 is no effect, 100 is complete control, read-out: Plant response rating, Barnyardgrass)?
A: 0%

Q: What about the pest or weed control at 125 g/ha (giant foxtail; [6]) of the same compound?
A: 0%

Q: And the pest or weed control at 500 g/ha (giant foxtail; [6])?
A: 0%

Q: What about the pest or weed control at 500 g/ha (giant foxtail; pre-emergence, visual rating 0-100, 0 no effect, 100 complete control, read-out: Plant response rating, Foxtail, Giant) of the same compound?
A: 0%

Q: What about the pest or weed control at 125 g/ha (giant foxtail; pre-emergence, preemergence, 0 to 100 scale, 0 is no effect, 100 is complete control, read-out: Plant response rating, Foxtail, Giant) of the same compound?
A: 0%

Q: And the pest or weed control at 125 g/ha (lambsquarters; [7])?
A: 0%

Q: And the pest or weed control at 500 g/ha (lambsquarters; [7])?
A: 20%

Q: And the pest or weed control at 500 g/ha (lambsquarters; pre-emergence, visual rating 0-100, 0 no effect, 100 complete control, read-out: Plant response rating, Lambsquarters)?
A: 0%

Q: And the pest or weed control at 125 g/ha (lambsquarters; pre-emergence, preemergence, 0 to 100 scale, 0 is no effect, 100 is complete control, read-out: Plant response rating, Lambsquarters)?
A: 0%

Q: And the pest or weed control at 1000 g/ha [2]?
A: 0%

Q: What about the pest or weed control at 125 g/ha (cocklebur; [8]) of the same compound?
A: 0%

Q: What about the pest or weed control at 500 g/ha (cocklebur; [8]) of the same compound?
A: 0%

Q: What about the pest or weed control at 500 g/ha (cocklebur; pre-emergence, visual rating 0-100, 0 no effect, 100 complete control, read-out: Plant response rating, Cocklebur) of the same compound?
A: 0%

Q: And the pest or weed control at 125 g/ha (cocklebur; pre-emergence, preemergence, 0 to 100 scale, 0 is no effect, 100 is complete control, read-out: Plant response rating, Cocklebur)?
A: 0%

Q: What about the plant injury at 125 g/ha (corn; post-emergence, postemergence, 125 g ai/ha, visual rating, scale 0 (no effect) to 100 (complete control), read-out: Corn plant response rating) of the same compound?
A: 0%

Q: What about the plant injury at 500 g/ha (corn; post-emergence, postemergence, 500 g ai/ha, visual rating, scale 0 (no effect) to 100 (complete control), read-out: Corn plant response rating) of the same compound?
A: 10%

Q: And the Corn plant response rating (crop injury, 0 = no effect, 100 = complete kill) at 500 g/ha (corn; pre-emergence, 500 g ai/ha, visual rating 0-100, 0 no effect, 100 complete control)?
A: 0%

Q: What about the Corn plant response rating (crop injury, 0 = no effect, 100 = complete kill) at 125 g/ha (corn; pre-emergence, preemergence, 125 g ai/ha, 0 to 100 scale, 0 is no effect, 100 is complete control) of the same compound?
A: 0%

Q: And the pest or weed control at 125 g/ha (morningglory; [9])?
A: 0%

Q: And the pest or weed control at 500 g/ha (morningglory; [9])?
A: 0%

Q: And the pest or weed control at 500 g/ha (morningglory; pre-emergence, visual rating 0-100, 0 no effect, 100 complete control, read-out: Plant response rating, Morningglory)?
A: 0%

Q: And the pest or weed control at 125 g/ha (morningglory; pre-emergence, preemergence, 0 to 100 scale, 0 is no effect, 100 is complete control, read-out: Plant response rating, Morningglory)?
A: 0%

Q: What about the pest or weed control at 125 g/ha (pigweed; [10]) of the same compound?
A: 0%

Q: And the pest or weed control at 500 g/ha (pigweed; [10])?
A: 20%

Q: What about the pest or weed control at 500 g/ha (pigweed; pre-emergence, visual rating 0-100, 0 no effect, 100 complete control, read-out: Plant response rating, Pigweed) of the same compound?
A: 0%

Q: What about the pest or weed control at 125 g/ha (pigweed; pre-emergence, preemergence, 0 to 100 scale, 0 is no effect, 100 is complete control, read-out: Plant response rating, Pigweed) of the same compound?
A: 0%

Q: What about the pest or weed control at 1000 g/ha (ducksalad) of the same compound?
A: 0%

Q: And the pest or weed control at 125 g/ha (wild oat; 125 g ai/ha)?
A: 0%

Q: And the pest or weed control at 500 g/ha (wild oat; 500 g ai/ha)?
A: 20%

Q: What about the pest or weed control at 1000 g/ha (barnyardgrass [3]) of the same compound?
A: 0%

Q: What about the pest or weed control at 125 g/ha (velvetleaf; [11]) of the same compound?
A: 0%

Q: What about the pest or weed control at 500 g/ha (velvetleaf; [11]) of the same compound?
A: 20%

Q: What about the pest or weed control at 500 g/ha (velvetleaf; pre-emergence, visual rating 0-100, 0 no effect, 100 complete control, read-out: Plant response rating, Velvetleaf) of the same compound?
A: 0%

Q: What about the pest or weed control at 125 g/ha (velvetleaf; pre-emergence, preemergence, 0 to 100 scale, 0 is no effect, 100 is complete control, read-out: Plant response rating, Velvetleaf) of the same compound?
A: 0%

Q: What about the plant injury at 1000 g/ha (rice) of the same compound?
A: 0%
